Source: patent US4101676A, “Diphenylpropylamines to treat depression” (Beecham Group Limited, priority 1973, dated 1978)
Where a name gives a salt, the structure may show the parent alone. Values belong to the compound of their own block, whether it stands above or below them.

How the values were obtained:
reserpine hypothermia [1] = assay: Prevention of Reserpine Hypothermia; assay type: in vivo, mice (Carworth Europe male); conditions: for Reserpine Prevention Δ^6: 6 hours; for Reserpine Prevention Δ^24: 24 hours; for effects on the Reserpine Prevention tests: comparison of the two isomers; for Δ^6 / Δ^24: mice, oral; for Δ^6: cumulative temperature difference from controls at 6 hours; for Δ^24: cumulative temperature difference from controls at 24 hours
Description: The method of Spencer [Antidepressant Drugs, 194 (1967) ] was used. Groups of ten mice are given oral doses of test compound 24 18 and 2 hours before an intravenous injection of reserpine base (Serpasil). Oral temperatures of the mice are taken immediately before administration of reserpine and then 2 4 6 and 24 hours afterwards.
Mean temperatures of groups given test compounds are compared with reserpinised controls using a Students t test. Compounds causing a significant difference at the level P < 0.001 are considered active. In order to quantify anti-reserpine activity cumulative temperature differences from controls at 6 hours and 24 hours (Δ^6 and Δ^24 ) are calculated.
(§1) Carworth Europe male mice are used for all experiments apart from that using the cat nictitating membrane and test compounds are administered orally as solutions in distilled water. Compounds for intravenous administration are dissolved in 0.9% saline apart from Reserpine which is dissolved in dilute acetic acid buffered to pH5. Unless otherwise stated, the dosing interval is one hour.
(§2) The Reserpine Prevention, Reserpine Reversal and Noradrenaline Uptake Inhibition tests were carried out as described in the previous Example. The Mydriasis tests was also as described in the previous Example but using 20 mg/kg doses of each compound after which a curve was plotted of percentage increase in pupil diameter vertus time and the percentage increase was integrated with respect to time for 0-120 minutes after dosing and the result expressed as a percentage.

reserpine hypothermia [2] = assay: Reversal of Reserpine Hypothermia; assay type: in vivo, mice (Carworth Europe male)
Description: Seventeen hours later the oral temperatures of the mice are taken and various doses of test compound or vehicle given subcutaneously. Temperatures are taken 1, 2, 4 6 and 24 hours later and the results are analysed as in Test 1 (The subcutaneous route is used for convenience as the very depressed reserpinised mice cannot be reliably dosed orally).
as §1, §2

Noradrenaline uptake = assay: Inhibition of Noradrenaline Uptake in vitro (brain synaptosomes); assay type: biochemical, male Wistar rats; conditions: 10^-6 molar (Pharmacology 2)
Description: Synaptosomes are isolated from the brains of male Wistar rats (150-170g.) and monamine uptake determined by the method of Snyder and Coyle (1968) [Synder S. H. and Coyle J. T. J. Pharmac. exp. Ther. 165 (1968) 78-86]. Uptake was determined over a ten minute period instead of the normal five minutes.
as §2

[3] = tested on: pupil diameter (mydriasis); assay: Mydriasis integral 0-120 minutes; assay type: in vivo, mice; conditions: for Mydriasis Integral Percent 120 Mins.: mice, 20 mg/kg, 0-120 minutes
Description: Groups of five mice are pre-selected for uniformity of pupil diameter using a binocular microscope with a calibrated eye-piece. Pupil sizes are measured at various intervals after an intraperitoneal injection of test compound and at the peak time a curve plotted of percentage increase in pupil diameter versus log dose. From this the dose causing a 200% increase in pupil size (this lies on the linear part of the curve) is found
as §1, §2

[4] = tested on: pupil diameter (mydriasis, anticholinergic side effect); assay: Mydriatic Response in Mice (dose causing 200% increase in pupil size); assay type: in vivo
Description: Groups of five mice are pre-selected for uniformity of pupil diameter using a binocular microscope with a calibrated eye-piece. Pupil sizes are measured at various intervals after an intraperitoneal injection of test compound and at the peak time a curve plotted of percentage increase in pupil diameter versus log dose. […] Carworth Europe male mice are used for all experiments apart from that using the cat nictitating membrane and test compounds are administered orally as solutions in distilled water. […] Unless otherwise stated, the dosing interval is one hour.

[5] = target: T1, Guinea Pig Ileum (Cavia porcellus); assay: pA2 Determination on Guinea Pig Ileum (antagonism to Acetylcholine); conditions: in vitro, read-out: pA2 on Iillium (converted)
T1 construct: from tissue; host or cells: guinea pig ileum
Source text: It is thus a means of expressing anticholinergic activity which is independent of the dose of Acetylcholine and the piece of tissue used. The method used is similar to that of Schild, [Brit. J. Pharmacol. 14 (1959) 48] the tissue being bathed in Tyrode solution and a dose response curved for Acetylcholine being obtained.

[6] = Pharmacology 2, dose 10 (unit not given)
[7] = Pharmacology 2, dose 20 (unit not given)
[8] = Pharmacology 2, dose 40 (unit not given)
[9] = Pharmacology 2, dose 10 (unit not given), 6 hours
[10] = Pharmacology 2, dose 10 (unit not given), 24 hours
[11] = Pharmacology 2, dose 20 (unit not given), 6 hours
[12] = Pharmacology 2, dose 20 (unit not given), 24 hours
[13] = Pharmacology 2, dose 40 (unit not given), 6 hours
[14] = Pharmacology 2, dose 40 (unit not given), 24 hours

T1 sequence (H0W1Z3 1-590): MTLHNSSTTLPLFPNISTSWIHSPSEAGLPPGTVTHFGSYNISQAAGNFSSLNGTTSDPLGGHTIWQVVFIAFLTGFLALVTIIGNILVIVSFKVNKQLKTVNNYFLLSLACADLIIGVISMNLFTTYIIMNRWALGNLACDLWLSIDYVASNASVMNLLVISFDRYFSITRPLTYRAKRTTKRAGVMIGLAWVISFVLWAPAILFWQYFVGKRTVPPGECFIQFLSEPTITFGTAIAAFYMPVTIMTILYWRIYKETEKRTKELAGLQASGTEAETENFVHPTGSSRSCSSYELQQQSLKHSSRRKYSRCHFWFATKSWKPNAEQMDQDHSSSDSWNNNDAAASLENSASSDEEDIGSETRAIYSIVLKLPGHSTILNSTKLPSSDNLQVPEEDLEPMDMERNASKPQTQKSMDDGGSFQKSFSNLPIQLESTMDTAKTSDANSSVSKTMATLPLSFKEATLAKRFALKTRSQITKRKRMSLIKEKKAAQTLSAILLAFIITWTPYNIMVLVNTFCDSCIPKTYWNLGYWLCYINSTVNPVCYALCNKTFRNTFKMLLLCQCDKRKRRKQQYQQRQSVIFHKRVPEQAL

Structure (SMILES): CN(C)CC(O)C(c1ccccc1)c1ccccc1 (racemic) [Compound A, (±) -3-Dimethylamino-1,1-diphenylpropan-2-ol]
- Reserpine Prevention Δ^6 (reserpine hypothermia [1]; [6]): 12 °C
- Reserpine Prevention Δ^24 (reserpine hypothermia [1]; [6]): 16 °C
- Reserpine Prevention Δ^6 (reserpine hypothermia [1]; [7]): 15 °C
- Reserpine Prevention Δ^24 (reserpine hypothermia [1]; [7]): 19 °C
- Reserpine Prevention Δ^6 (reserpine hypothermia [1]; [8]): 15 °C
- Reserpine Prevention Δ^24 (reserpine hypothermia [1]; [8]): 22 °C
- Reserpine Reversal Δ^6 (reserpine hypothermia [2]; [9]): 16 °C
- Reserpine Reversal Δ^24 (reserpine hypothermia [2]; [10]): 20 °C
- Reserpine Reversal Δ^6 (reserpine hypothermia [2]; [11]): 14 °C
- Reserpine Reversal Δ^24 (reserpine hypothermia [2]; [12]): 17 °C
- Reserpine Reversal Δ^6 (reserpine hypothermia [2]; [13]): 15 °C
- Reserpine Reversal Δ^24 (reserpine hypothermia [2]; [14]): 20 °C
- Inhibition of Noradrenaline Uptake In Vitro % (Noradrenaline uptake): 63%
- Mydriasis Integral Percent 120 Mins. [3]: 7400%

Structure (SMILES): CN(C)CC(O)C(c1ccccc1)c1ccccc1 (racemic) [Compound B, (+)-3-Dimethylamino-1,1-diphenyl-propan-2-ol]
- Reserpine Prevention Δ^6 (reserpine hypothermia [1]; [6]): 12 °C
- Reserpine Prevention Δ^24 (reserpine hypothermia [1]; [6]): 15 °C
- Reserpine Prevention Δ^6 (reserpine hypothermia [1]; [7]): 16 °C
- Reserpine Prevention Δ^24 (reserpine hypothermia [1]; [7]): 23 °C
- Reserpine Prevention Δ^6 (reserpine hypothermia [1]; [8]): 16 °C
- Reserpine Prevention Δ^24 (reserpine hypothermia [1]; [8]): 25 °C
- effects on the Reserpine Prevention tests (reserpine hypothermia [1]): roughly equal effects
- Reserpine Reversal Δ^6 (reserpine hypothermia [2]; [9]): 16 °C
- Reserpine Reversal Δ^24 (reserpine hypothermia [2]; [10]): 27 °C
- Reserpine Reversal Δ^6 (reserpine hypothermia [2]; [11]): 15 °C
- Reserpine Reversal Δ^24 (reserpine hypothermia [2]; [12]): 19 °C
- Reserpine Reversal Δ^6 (reserpine hypothermia [2]; [13]): 13 °C
- Reserpine Reversal Δ^24 (reserpine hypothermia [2]; [14]): 19 °C
- activity on the Reserpine Reversal Test (reserpine hypothermia [2]; low doses, (+)-isomer versus (-)-isomer): more active than the (-)-isomer on the Reserpine Reversal Test at low doses
- Inhibition of Noradrenaline Uptake In Vitro % (Noradrenaline uptake): 40%
- Mydriasis Integral Percent 120 Mins. [3]: 12600%

Structure (SMILES): CN(C)CC(O)C(c1ccccc1)c1ccccc1 (single isomer, unassigned; (-)) [Compound C, (-)-3-Dimethylamino-1,1-diphenylpropan-2-ol]
- Reserpine Prevention Δ^6 (reserpine hypothermia [1]; [6]): 11 °C
- Reserpine Prevention Δ^24 (reserpine hypothermia [1]; [6]): 17 °C
- Reserpine Prevention Δ^6 (reserpine hypothermia [1]; [7]): 13 °C
- Reserpine Prevention Δ^24 (reserpine hypothermia [1]; [7]): 19 °C
- Reserpine Prevention Δ^6 (reserpine hypothermia [1]; [8]): 12 °C
- Reserpine Prevention Δ^24 (reserpine hypothermia [1]; [8]): 19 °C
- effects on the Reserpine Prevention tests (reserpine hypothermia [1]): roughly equal effects
- Reserpine Reversal Δ^6 (reserpine hypothermia [2]; [9]): 6 °C
- Reserpine Reversal Δ^24 (reserpine hypothermia [2]; [10]): 3 °C
- Reserpine Reversal Δ^6 (reserpine hypothermia [2]; [11]): 16 °C
- Reserpine Reversal Δ^24 (reserpine hypothermia [2]; [12]): 19 °C
- Reserpine Reversal Δ^6 (reserpine hypothermia [2]; [13]): 13 °C
- Reserpine Reversal Δ^24 (reserpine hypothermia [2]; [14]): 20 °C
- Inhibition of Noradrenaline Uptake In Vitro % (Noradrenaline uptake): 64%
- peripheral anticholinergic effects ([3]; (-)-isomer versus (+)-isomer): fewer peripheral anticholinergic effects than the (+)-isomer
- Mydriasis Integral Percent 120 Mins. [3]: 6700%

Structure (SMILES): CN(C)CCC=C1c2ccccc2CCc2ccccc21 [Amitriptyline hydrochloride, reference compound]
- Δ^6 (reserpine hypothermia [1]; 30 mg/kg): 12 °C
- Δ^24 (reserpine hypothermia [1]; 30 mg/kg): 22 °C
- Mydriasis-Dose to cause 200% effect ([4]; mouse, in vivo, ip): 6 mg/kg

Structure (SMILES): CCN(CC)CC(O)C(c1ccccc1)c1ccccc1 (centres unmarked) [C2H5 C2H5 H H H HCl]
- Δ^6 (reserpine hypothermia [1]; 30 mg/kg): 11 °C
- Δ^24 (reserpine hypothermia [1]; 30 mg/kg): 11 °C

Structure (SMILES): CN(Cc1ccccc1)CC(O)C(c1ccccc1)c1ccc(F)cc1 (centres unmarked) [CH2C6H5 CH3 H H F, 3-(N-Benzyl,N-methylamino)-1-p-fluorophenyl-1-phenylpropan-2-ol]
- Δ^6 (reserpine hypothermia [1]; 30 mg/kg): 9 °C
- Δ^24 (reserpine hypothermia [1]; 30 mg/kg): 11 °C

Structure (SMILES): CN(Cc1ccccc1)CC(O)C(c1ccccc1)c1ccccc1 (centres unmarked) [CH2C6H5 CH3 H H H HCl, 3-(N-Benzyl-N-methylamino)-1,1-diphenyl-propan-2-ol]
- Δ^6 (reserpine hypothermia [1]; 30 mg/kg): 10 °C
- Δ^24 (reserpine hypothermia [1]; 30 mg/kg): 11 °C

Structure (SMILES): Cc1ccccc1C(c1ccccc1)C(O)CN(C)C (centres unmarked) [CH3 CH3 CH3 H H HCl, 3-Dimethylamino-1-phenyl-1-o-tolyl-propan-2-ol]
- Δ^6 (reserpine hypothermia [1]; 30 mg/kg): 11 °C
- Δ^24 (reserpine hypothermia [1]; 30 mg/kg): 14 °C

Structure (SMILES): CN(C)CC(O)C(c1ccccc1)c1cccc(Cl)c1 (centres unmarked) [CH3 CH3 H Cl H HCl, 3-Dimethylamino-1-m-chlorophenyl-1-phenyl-propan-2-ol]
- Δ^6 (reserpine hypothermia [1]; 20 mg/kg): 10 °C
- Δ^24 (reserpine hypothermia [1]; 20 mg/kg): 17 °C

- Kb [5]: 10 µM
Structure (SMILES): CN(C)CC(O)C(c1ccccc1)c1ccc(Cl)cc1 (centres unmarked) [CH3 CH3 H H Cl, 3-Dimethylamino-1-p-chlorophenyl-1-phenyl-propan-2-ol]
- Δ^6 (reserpine hypothermia [1]; 30 mg/kg): 13 °C
- Δ^24 (reserpine hypothermia [1]; 30 mg/kg): 22 °C
- Δ^6 (reserpine hypothermia [2]; mice, subcutaneous, 30 mg/kg, 6 hours): 9 °C
- Δ^24 (reserpine hypothermia [2]; mice, subcutaneous, 30 mg/kg, 24 hours): 11 °C
- Mydriasis-Dose to cause 200% effect ([4]; mice, intraperitoneal, at peak time): 40 mg/kg
